The text below walks through data of patent US20250170149A1, “NEUROACTIVE STEROIDS FOR TREATMENT OF GASTROINTESTINAL DISEASES OR CONDITIONS” (Sage Therapeutics, Inc., priority 2022, published 2025).

SMILES strings stand for the structures. “Also recorded” adds a separate entry of the source. Like-named read-outs stand apart in the source and are kept apart here.

Series [1] concerns patients with major depressive disorder (MDD). Particulars: cited from earlier work; for rates of gastrointestinal adverse reactions compared to placebo, words: 15 most commonly used antidepressants in MDD, Oliva V, et al. 2021; for gastrointestinal tolerability among antidepressants, words: Oliva V. et al. 2021 meta-analysis in MDD.
Series [2] has as its system participants with major depressive disorder (MDD). Kind of series: Treatment-emergent adverse events (TEAEs) and serious AEs in study NCT04476030, safety set. It is filed as in vivo, human. The note with it: one patient, about 1 hour after zuranolone 50 mg on Day 7; resolved within 22 minutes. Here is the method: A randomized, double-blind, parallel-group, active/placebo-controlled study (NCT04476030) in participants with major depressive disorder (MDD) was conducted. The study evaluated the efficacy and safety of zuranolone 50 mg co-initiated with standard-of-care (SOC) antidepressant therapies (ADTs) (zuranolone+ADT) vs placebo co-initiated with SOC ADT (placebo+ADT) in adults with MDD. Patients were randomized 1:1 to once-daily, blinded zuranolone +ADT or placebo+ADT for 14 days then continued open-label SOC ADT for 28 more days.
An AE could therefore be any unfavorable and unintended sign (including an abnormal laboratory finding), symptom or disease temporally associated with the use of a medicinal (investigational) product whether or not related to the medicinal (investigational) product. In clinical studies, an AE could include an undesirable medical condition occurring at any time, including baseline or washout periods, even if no study treatment had been administered.
A treatment emergent adverse event (TEAE) was defined as an AE with onset after the start of investigational product (IP), or any worsening of a pre-existing medical condition/AE with onset after the start of IP and throughout the study. The term IP included any Sage IP, a comparator, or a placebo administered in a clinical study. […]

`COc1ccc2cccc(CCNC(C)=O)c2c1` [agomelatine]: the “rates of gastrointestinal adverse reactions compared to placebo, words” value (“rates … compared to placebo, words” for short) in series [1] is on record as “higher rates of gastrointestinal adverse reactions”.

`CC(NC(C)(C)C)C(=O)c1cccc(Cl)c1` (stereo not drawn) [bupropion]: the “rates … compared to placebo, words” value in series [1] is “higher rates of gastrointestinal adverse reactions”.

For the compound `CN(C)CCCC1(c2ccc(F)cc2)OCc2cc(C#N)ccc21` (stereo not drawn) [citalopram], in series [1], the “rates … compared to placebo, words” value is “higher rates of gastrointestinal adverse reactions”.

Consider `CN(C)CC(c1ccc(O)cc1)C1(O)CCCCC1` (stereo not drawn) [desvenlafaxine], for which the “rates … compared to placebo, words” value in series [1] was “higher rates of gastrointestinal adverse reactions”.

`CNCC[C@H](Oc1cccc2ccccc12)c1cccs1` [duloxetine]: the “rates … compared to placebo, words” value in series [1] is given as “higher rates of gastrointestinal adverse reactions”.

For `CN(C)CCC[C@@]1(c2ccc(F)cc2)OCc2cc(C#N)ccc21` [escitalopram], the “rates … compared to placebo, words” value in series [1] was “higher rates of gastrointestinal adverse reactions”. The figures for the “gastrointestinal tolerability among antidepressants, words” value in series [1] and in series [1] (listed as Escitalopram) were “least tolerated antidepressants on the gastrointestinal tract” and “least tolerated antidepressants on the GI tract”, respectively.

In the case of `CNCCC(Oc1ccc(C(F)(F)F)cc1)c1ccccc1` (stereo not drawn) [fluoxetine], in series [1], the “rates … compared to placebo, words” value was “higher rates of gastrointestinal adverse reactions”.

In the case of `COCCCC/C(=N\OCCN)c1ccc(C(F)(F)F)cc1` [fluvoxamine], the “rates … compared to placebo, words” value in series [1] is reported as “higher rates of gastrointestinal adverse reactions”.

As to `CCN(CC)C(=O)[C@@]1(c2ccccc2)C[C@H]1CN` [levomilnacipran], in series [1], the “rates … compared to placebo, words” value was “higher rates of gastrointestinal adverse reactions”.

Take `CN1CCN2c3ncccc3Cc3ccccc3C2C1` (stereo not drawn) [mirtazapine]: the “rates … compared to placebo, words” value in series [1] is reported as “higher rates of gastrointestinal adverse reactions”.

On to `Fc1ccc([C@@H]2CCNC[C@H]2COc2ccc3c(c2)OCO3)cc1` [paroxetine], for which the “rates … compared to placebo, words” value in series [1] is reported as “higher rates of gastrointestinal adverse reactions”.

Turning to `CCOc1ccccc1OC(c1ccccc1)C1CNCCO1` (stereo not drawn) [reboxetine], the “rates … compared to placebo, words” value in series [1] is “higher rates of gastrointestinal adverse reactions”.

`CN[C@H]1CC[C@@H](c2ccc(Cl)c(Cl)c2)c2ccccc21` [sertraline]: in series [1], the “rates … compared to placebo, words” value is “higher rates of gastrointestinal adverse reactions” and the “gastrointestinal tolerability among antidepressants, words” value is given as “least tolerated antidepressants on the gastrointestinal tract; also recorded: least tolerated antidepressants on the GI tract”. The “incidence of diarrhea, words” value in series [1] (compared to other SSRIs and venlafaxine, Gartlehner G, et al. 2011) is recorded as “higher incidence of diarrhea”.

For the compound `COc1ccc(C(CN(C)C)C2(O)CCCCC2)cc1` (stereo not drawn) [venlafaxine], in series [1], the “rates … compared to placebo, words” value was “higher rates of gastrointestinal adverse reactions”. Moreover, the “rates of nausea and vomiting, words” value in series [1] (compared to SSRIs and duloxetine, Gartlehner G, et al. 2011) was “higher rates of nausea and vomiting”.

As for `Cc1ccc(Sc2ccccc2N2CCNCC2)c(C)c1` [vortioxetine], the “rates … compared to placebo, words” value in series [1] was “higher rates of gastrointestinal adverse reactions”.

`C[C@@]1(O)CC[C@H]2[C@H](CC[C@@H]3[C@@H]2CC[C@]2(C)[C@@H](C(=O)Cn4cc(C#N)cn4)CC[C@@H]32)C1` [zuranolone]: the “serious TEAE assessed as related to zuranolone by the investigator” value in series [2] is “seizure-like phenomenon; also recorded: seizure-like phenomena”.
